Measurements reported in US9428456B2, “1-[m-carboxamido(hetero)aryl-methyl]-heterocyclyl-carboxamide derivatives” (Actelion Pharmaceuticals Ltd., priority 2012, dated 2016).

Target: CXCR7 (Homo sapiens (Human), UniProt P25106)
Assay: PathHunter CHO-K1 CXCR7 b-arrestin assay (agonistic activity)
Format: cell-based
Conditions: PathHunter CHO-K1 CXCR7 b-arrestin cell line
Outline: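 CHO-K1 cells co-expressing ProLink-tagged CXCR7 and EA-fused β-arrestin 2 (enzyme fragment complementation); compounds added in HBSS/20 mM HEPES/0.2% BSA after 3–4 h in OPTIMEM, 90 min at 37 °C. Chemiluminescent β-gal signal read after 1 h detection at room temperature; EC50 reported as geometric mean of several measurements.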

Sequence of CXCR7 (P25106 whole entry): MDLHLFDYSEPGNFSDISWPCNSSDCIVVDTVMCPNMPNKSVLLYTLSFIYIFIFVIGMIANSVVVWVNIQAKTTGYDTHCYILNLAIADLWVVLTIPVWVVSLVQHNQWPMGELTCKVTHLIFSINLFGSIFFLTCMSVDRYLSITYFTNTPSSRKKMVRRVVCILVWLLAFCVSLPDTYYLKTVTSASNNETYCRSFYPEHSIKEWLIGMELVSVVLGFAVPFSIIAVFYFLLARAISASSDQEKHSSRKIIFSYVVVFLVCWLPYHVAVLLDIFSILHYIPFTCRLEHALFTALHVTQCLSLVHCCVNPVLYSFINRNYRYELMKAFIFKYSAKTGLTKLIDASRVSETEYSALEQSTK
Sequence of CXCR7 (P32121 whole entry partner): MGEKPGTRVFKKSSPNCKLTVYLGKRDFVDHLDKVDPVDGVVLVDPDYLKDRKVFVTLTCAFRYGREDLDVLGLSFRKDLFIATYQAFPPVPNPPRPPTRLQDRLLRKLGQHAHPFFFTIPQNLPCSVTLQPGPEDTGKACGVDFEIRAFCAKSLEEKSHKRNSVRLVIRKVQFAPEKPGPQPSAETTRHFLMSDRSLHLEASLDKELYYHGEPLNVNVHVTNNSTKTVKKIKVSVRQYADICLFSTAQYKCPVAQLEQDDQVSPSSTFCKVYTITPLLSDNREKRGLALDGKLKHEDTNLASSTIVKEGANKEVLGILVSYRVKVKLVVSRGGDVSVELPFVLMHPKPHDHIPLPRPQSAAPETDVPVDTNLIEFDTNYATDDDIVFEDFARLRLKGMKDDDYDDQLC

Compound	EC50 [nM]
CCC(C)(C)NC(=O)C1CCN(Cc2cccc(NC(=O)c3ccc(F)c[n+]3[O-])c2)CC1 [Example 4.021, 5-Fluoro-1-oxy-pyridine-2-carboxylic acid {3-[4-(1,1-dimethyl-propylcarbamoyl)-piperidin-1-ylmethyl]-phenyl}amide]	2
Cc1cc(C(=O)Nc2cccc(CN3CCC(C(=O)NC(C)(C)C)CC3)c2)c[n+]([O-])c1 [Example 4.022, N-[3-(4-tert-Butylcarbamoyl-piperidin-1-ylmethyl)-phenyl]-5-methyl-1-oxy-nicotinamide]	234
CCC(C)(C)NC(=O)C1CCN(Cc2cccc(NC(=O)c3cc(C)c[n+]([O-])c3)c2)CC1 [Example 4.023, N-{3-[4-(1,1-Dimethyl-propylcarbamoyl)-piperidin-1-ylmethyl]-phenyl}-5-methyl-1-oxy-nicotinamide]	173
CC(C)(C)NC(=O)C1CCN(Cc2cccc(NC(=O)c3ccc(Cl)c[n+]3[O-])c2)CC1 [Example 4.024, 5-Chloro-1-oxy-pyridine-2-carboxylic acid [3-(4-tert-butylcarbamoyl-piperidin-1-ylmethyl)-phenyl]-amide]	3
CCC(C)(C)NC(=O)C1CCN(Cc2cccc(NC(=O)c3ccc(Cl)c[n+]3[O-])c2)CC1 [Example 4.025, 5-Chloro-1-oxy-pyridine-2-carboxylic acid {3-[4-(1,1-dimethyl-propylcarbamoyl)-piperidin-1-ylmethyl]-phenyl}amide]	2
Cc1cncc(C(=O)Nc2cccc(CN3CCC(C(=O)NC4CCCCC4)CC3)c2)c1 [Example 6.001, N-(3-((4-(cyclohexylcarbamoyl)piperidine-1-yl)d2methyl)phenyl)-5-methylnicotinamide]	5
Cc1cncc(C(=O)Nc2cccc(CN3CCC(C(=O)NC4CCCC4)CC3)c2)c1 [Example 6.002, N-(3-((4-(cyclopentylcarbamoyl)piperidin-1-yl)d2methyl)phenyl)-5-methylnicotinamide]	4
Cc1cc(C(=O)Nc2cccc(CN3CCC(C(=O)NC(C)(C)C)CC3)c2)cnn1 [Example 7.001, 6-Methyl-pyridazine-4-carboxylic acid [3-(4-tert-butylcarbamoyl-piperidin-1-ylmethyl)-phenyl]-amide]	62
CC(C)(C)NC(=O)C1CCN(Cc2cccc(NC(=O)c3ccc(N)cn3)c2)CC1 [Example 8.001, 5-Amino-pyridine-2-carboxylic acid [3-(4-tert-butylcarbamoyl-piperidin-1-ylmethyl)-phenyl]-amide]	4
rac-6-Trifluoromethyl-pyridine-2-carboxylic acid [3-((2S*,4S*)-4-cyclohexylcarbamoyl-2-methyl-piperidin-1-ylmethyl)-phenyl]-amide [Example 2.101]	5
